The text below walks through data of ChEMBL document CHEMBL1150766, “Synthesis and in vitro biological activity of retinyl retinoate, a novel hybrid retinoid derivative” (Bioorg Med Chem, 2008).

Each structure is given as a SMILES string. Calls of active or inactive are those of the source. The rule behind the calls is not given here.

The subject of series [1] is HaCaT. Briefly: Decrease in collagenase expression in Coll-CAT gene transfected human HaCaT cells co-transfected with c-Jun and retinoic acid receptor relative to control. Format: functional.
In series [2] the test system is HaCaT. Kind of series: Decrease in collagenase expression in Coll-CAT gene transfected human HaCaT cells co-transfected with c-Jun relative to control. Format: functional.
Series [3] in a line: Cytotoxicity against human normal fibroblast after 1 day by MTT assay. The class given is cell-based. The following applies: 24 h. Background: Formazan colour is commonly taken as a measure of viable cells.
Series [4] is described as follows: Photostability after UV irradiation. Format: physicochemical.
A short description of series [5]: Stability in human fibroblasts assessed as retention time after 2 days. The class given is ADME, cell-based. Particulars: fibroblast, 48 h.
The nature of series [6]: Thermal stability at 4 degC after 4 weeks. The class given is physicochemical. Particulars: 672 h.
In series [7] the test system is Fibroblast. Kind of series: Induction of CRABP 2 mRNA expression in human normal fibroblast at 10 uM by […] relative to control. Format: functional. In general terms: A western blot detects proteins with antibodies after separation by electrophoresis.
The test system of series [8] is Fibroblast. Kind of series: Induction of collagen biosynthesis in human normal fibroblast. The class given is functional, cell-based.
The target of series [9] is Transcription factor Jun (Homo sapiens) (UniProt P05412). Briefly: Inhibition of AP1 expressed in human HaCaT cells transfected with Coll-CAT reporter gene assessed as collagenase expression by CAT-ELISA. The class given is cell-based. A general note: In a reporter assay the amount or activity of a reporter protein is the signal.
Chain of Transcription factor Jun (Homo sapiens) (P05412 whole entry): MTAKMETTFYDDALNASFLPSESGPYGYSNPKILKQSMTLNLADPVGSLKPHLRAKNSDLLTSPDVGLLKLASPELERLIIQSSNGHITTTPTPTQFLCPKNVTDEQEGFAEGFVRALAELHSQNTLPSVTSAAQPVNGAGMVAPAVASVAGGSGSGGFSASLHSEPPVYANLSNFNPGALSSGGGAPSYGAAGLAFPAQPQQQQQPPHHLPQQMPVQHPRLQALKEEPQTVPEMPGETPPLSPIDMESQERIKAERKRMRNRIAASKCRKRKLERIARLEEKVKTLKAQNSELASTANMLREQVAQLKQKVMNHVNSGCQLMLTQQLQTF
The target of series [10] is T1, Retinoic acid receptor alpha (Homo sapiens) (UniProt P10276).
T1 sequence (whole entry): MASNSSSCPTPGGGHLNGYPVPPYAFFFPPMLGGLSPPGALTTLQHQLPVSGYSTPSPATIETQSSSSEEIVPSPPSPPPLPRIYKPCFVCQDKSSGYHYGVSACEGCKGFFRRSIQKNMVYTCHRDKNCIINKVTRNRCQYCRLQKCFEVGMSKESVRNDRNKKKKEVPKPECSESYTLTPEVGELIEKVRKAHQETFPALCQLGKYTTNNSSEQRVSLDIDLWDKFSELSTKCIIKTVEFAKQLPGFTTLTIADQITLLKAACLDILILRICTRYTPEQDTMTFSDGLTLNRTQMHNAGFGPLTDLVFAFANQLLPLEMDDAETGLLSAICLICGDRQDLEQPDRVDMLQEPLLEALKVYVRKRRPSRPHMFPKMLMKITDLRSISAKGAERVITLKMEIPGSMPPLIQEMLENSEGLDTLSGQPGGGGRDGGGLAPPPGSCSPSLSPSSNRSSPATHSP
Kind of series: Increase in transcriptional activity of RARalpha receptor epressed in human HaCaT cells co-transfected with DR5-tk-CAT reporter plasmid assessed as beta-galactosidase activity by CAT-ELISA. Format: cell-based.

Series [11] relates to Fibroblast. Kind of series: Induction of CRABP 2 mRNA expression in human normal fibroblast at 1 uM by […] relative to control. The class given is functional.
A short description of series [12]: Thermal stability at 40 degC after 4 weeks. Format: physicochemical. The following applies: 672 h.

The IC50 is the concentration at which inhibition is half-maximal. In the case of `CC1=C(/C=C/C(C)=C/C=C/C(C)=C/COC(=O)/C=C(C)/C=C/C=C(C)/C=C/C2=C(C)CCCC2(C)C)C(C)(C)CCC1` [RETINYLRETINOATE], the “inhibition (INH)” value came to 52% in the series with HaCaT [1] and 6.7% in the series on HaCaT [2]. Further, in [3], inhibition was half-maximal at 40 µM (IC50). Also, the Stability entry in series [4] and in series [6] was “Stable” throughout. In addition, the Activity in series [5] came to 18.94 min; in the series with Fibroblast [7], 1.75; in the series on Fibroblast [11] it was 1.56. For the same molecule, the result (with Fibroblast [8]; in [9]; in [10]) was Active.

Turning to `CC1=C(/C=C/C(C)=C/C=C/C(C)=C/CO)C(C)(C)CCC1` [RETINOL], the “inhibition (INH)” value in the series with HaCaT [1] is 33%; in the series on HaCaT [2], 7.3%. Also, the Activity result in series [12] is reported as “Not Active”; in series [4] it was “Not Active”; in the series with Fibroblast [7], 1.44; in the series on Fibroblast [11], 1.4. Further, half-maximal inhibition in series [3] (IC50) required 25 µM. Also, the Stability result in series [6] was “Stable”. In addition, the outcome in series [10] was Active.

For `CCCCCCCCCCCCCCCC(=O)OC/C=C(C)/C=C/C=C(C)/C=C/C1=C(C)CCCC1(C)C` [VITAMIN A PALMITATE], the Activity in the series with Fibroblast [7] came out at 1.4; with Fibroblast [11] it was 1.2.

As to `CC1=C(/C=C/C(C)=C/C=C/C(C)=C/C(=O)O)C(C)(C)CCC1` [TRETINOIN], the “inhibition (INH)” value in the series with HaCaT [1] is 64%; in the series on HaCaT [2] it was 5.4%. Moreover, the values for the Activity in the series with Fibroblast [7] and in the series on Fibroblast [11] were 2.05 and 1.84, respectively.
